Assay [1] addresses G protein-coupled receptor kinase 5 (Homo sapiens, UniProt P34947). The experiment in a line: Inhibition of GRK5 (unknown origin) preincubated for 10 mins followed by peptide substrate and ATP addition measured after 1 hr by TR-FRET assay.
For assay [2], the species on record is Homo sapiens. The experiment in a line: Selectivity ratio of IC50 for GRK5 (unknown origin) to IC50 for GRK2 (unknown origin) by phosphorylation assay.
The target of assay [3] is T1, Rhodopsin kinase GRK1 (Homo sapiens, UniProt Q15835).
T1 sequence (Q15835 whole entry): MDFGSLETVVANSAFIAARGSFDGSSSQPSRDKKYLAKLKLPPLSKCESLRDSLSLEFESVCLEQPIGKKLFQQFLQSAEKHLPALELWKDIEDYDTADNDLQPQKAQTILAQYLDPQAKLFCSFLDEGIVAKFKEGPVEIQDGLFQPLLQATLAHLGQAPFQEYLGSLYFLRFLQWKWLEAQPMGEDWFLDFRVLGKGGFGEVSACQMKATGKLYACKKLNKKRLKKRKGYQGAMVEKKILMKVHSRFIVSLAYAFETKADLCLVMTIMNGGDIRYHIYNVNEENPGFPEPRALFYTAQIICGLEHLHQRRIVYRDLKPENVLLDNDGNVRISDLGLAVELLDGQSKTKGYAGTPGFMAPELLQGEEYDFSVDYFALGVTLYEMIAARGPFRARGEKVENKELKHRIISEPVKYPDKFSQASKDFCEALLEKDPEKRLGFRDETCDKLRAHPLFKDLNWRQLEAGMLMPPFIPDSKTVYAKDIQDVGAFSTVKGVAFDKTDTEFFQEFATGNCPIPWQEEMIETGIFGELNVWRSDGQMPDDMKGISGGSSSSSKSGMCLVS
Put plainly: Inhibition of GRK1 (unknown origin) preincubated for 10 mins followed by peptide substrate and ATP addition measured after 1 hr by TR-FRET assay.

The target in assay [4] is T2, Beta-adrenergic receptor kinase 1 (Homo sapiens, UniProt P25098).
T2 sequence (P25098 whole entry): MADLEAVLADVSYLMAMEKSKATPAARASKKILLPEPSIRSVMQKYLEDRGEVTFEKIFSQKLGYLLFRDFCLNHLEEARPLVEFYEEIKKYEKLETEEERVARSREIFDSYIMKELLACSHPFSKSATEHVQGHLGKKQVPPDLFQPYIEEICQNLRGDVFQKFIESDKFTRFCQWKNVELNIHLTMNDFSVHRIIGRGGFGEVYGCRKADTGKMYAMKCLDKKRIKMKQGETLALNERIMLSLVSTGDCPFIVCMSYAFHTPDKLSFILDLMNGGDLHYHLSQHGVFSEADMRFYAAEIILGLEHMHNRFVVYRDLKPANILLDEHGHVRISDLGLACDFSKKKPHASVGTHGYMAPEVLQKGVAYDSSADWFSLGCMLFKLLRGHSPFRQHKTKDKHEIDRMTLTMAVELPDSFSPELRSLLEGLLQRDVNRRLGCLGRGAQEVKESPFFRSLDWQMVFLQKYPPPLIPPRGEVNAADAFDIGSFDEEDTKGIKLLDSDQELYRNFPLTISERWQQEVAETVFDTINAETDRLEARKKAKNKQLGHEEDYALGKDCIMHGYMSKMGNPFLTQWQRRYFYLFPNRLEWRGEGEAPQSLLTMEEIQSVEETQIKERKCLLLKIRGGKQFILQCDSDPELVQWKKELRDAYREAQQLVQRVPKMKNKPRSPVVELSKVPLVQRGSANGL
The experiment in a line: Inhibition of GRK2 (unknown origin) preincubated for 10 mins followed by peptide substrate and ATP addition measured after 1 hr by TR-FRET assay.

Chain of G protein-coupled receptor kinase 5 (P34947 whole entry): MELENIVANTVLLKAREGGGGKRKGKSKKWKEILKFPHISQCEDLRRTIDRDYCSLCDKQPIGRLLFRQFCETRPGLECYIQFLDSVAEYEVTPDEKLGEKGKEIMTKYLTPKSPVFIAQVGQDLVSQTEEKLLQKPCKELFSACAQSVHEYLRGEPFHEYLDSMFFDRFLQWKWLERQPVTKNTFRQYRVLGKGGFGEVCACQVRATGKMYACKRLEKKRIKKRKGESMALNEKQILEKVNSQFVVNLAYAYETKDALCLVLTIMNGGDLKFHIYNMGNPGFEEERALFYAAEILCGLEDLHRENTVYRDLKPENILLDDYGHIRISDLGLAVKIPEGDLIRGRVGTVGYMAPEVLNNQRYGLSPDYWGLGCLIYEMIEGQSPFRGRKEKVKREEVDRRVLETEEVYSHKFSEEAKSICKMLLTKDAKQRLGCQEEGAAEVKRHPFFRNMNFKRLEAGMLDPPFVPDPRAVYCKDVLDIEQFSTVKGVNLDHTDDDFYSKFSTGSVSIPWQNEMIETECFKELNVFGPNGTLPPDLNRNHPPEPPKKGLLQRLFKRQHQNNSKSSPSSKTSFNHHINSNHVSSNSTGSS

As for `CC1=C(C(=O)Nc2ccc3[nH]ncc3c2)C(c2ccc(F)c(C(=O)NCc3cn4ccccc4n3)c2)NC(=O)N1` (centres undefined), the IC50 turned out to be 1.9 µM in assay [1], 17 µM in assay [3] and 0.54 µM in assay [4]. For the same compound, the Ratio IC50 in assay [2] turned out to be 3.5.

The values are drawn from ChEMBL document CHEMBL4219205, “Utilizing a structure-based docking approach to develop potent G protein-coupled receptor kinase (GRK) 2 and 5 inhibitors” (Bioorg Med Chem Lett, 2018).
